Source: patent publication USRE36832E, “N-heteroaryl-N'-phenylurea derivatives, their production and use” (Nihon Nohyaku Co., LTD, priority 1993, dated 2000)

Experiments:
[1] = test system: cholesterol esterification in macrophages; assay: Inhibitory effect on cholesterol esterification in macrophages (J774 A.1 cells, AcLDL-loaded, [14C]oleate incorporation); type: cell-based; settings: Mus musculus, Macrophage, read-out: Inhibition rate (%)
Procedure: Inhibitory effect on cholesterol esterification in macrophages
The test was carried out by a modification of the method of Goldstein et al. [Pro. Nat. Acad. Sci. USA 71, 4288 (1974)]. J774 A.1 cells, the mouse macropharge-like cell line, were suspended in Dulbecco's modified Eagle's medium (DMEM) containing 10% fetal calf serum (FCS), in a proportion of 3×10^5 cells per 2 ml and were seeded into in 6-well plates. The cells were cultured under a humidified atmosphere of 95% air/5% CO2 at 37° C. for 24 hours. The medium was replaced by 1 ml of DMEM containing 10% of FCS and 50 μg/ml of acetylated human low density lipoprotein (AcLDL), followed by culturing for 16 hours. Five microliters each compound was dissolved in dimethyl sulfoxide and solution was added to the medium, followed by culturing for another 2 hours. Then, [14C]oleate (2×10^6 dpm/well) bovine serum albumin complex was added in the medium. After 2 hours of culture cells were collected and the cholesterol-esterifying activity was determined by measuring radioactivity incorporated into cholesterol esters in the cells. The recovery of the cholesterol esters was determined by the addition of [3H]cholesteryl oleate, and the esterifying activity was corrected using the recovery. As to the inhibitory activity on cholesterol esterification of the compound to be tested, the inhibition rate was calculated by the following equation. [formula] wherein A: the cholesterol-esterifying activity of AcLDL-loaded cells to which the compound to be tested was-added.
B: the cholesterol-esterifying activity of AcLDL-loaded cells to which dimethyl sulfoxide was added.

serum cholesterol = assay: Serum cholesterol lowering activity in hamsters fed on a high-cholesterol diet; type: in vivo, Male Syrian hamsters; settings: 30 mg per kg of body weight per day for 4 days, 24 hours after the last administration
Procedure: Serum cholesterol lowering activity in hamsters fed on a high-cholesterol diet
Male Syrian hamsters of 10-week-old were divided into three groups. The first group (normal group) was fed an ordinary diet for 4 days. The second group (control group) was fed a high cholesterol diet (containing 0.5% cholesterol and 8.0% coconut oil for 4 days. The third group (treated group) was fed a high cholesterol diet and was treated with a compound for 4 days. Simultaneously with the beginning of the above feeding, the compound suspended in a 0.5% carboxymethyl cellulose solution was administered to the treated group, in a dose of 30 mg (in terms of the compound) per kg of body weight per day for 4 days. A 0.5% carboxymethyl cellulose solution was also administered to the normal group and the control group in the same manner as above. After 24 hours of the last administration, blood was collected and the cholesterol concentration in serum was measured by an enzymatic method. The reduction rate of the total serum cholesterol concentration was calculated from values obtained for the three groups by the following equation. [formula] wherein A: the serum cholesterol concentration of the control group.
B: the serum cholesterol concentration of the compound treated group.
C: the serum cholesterol concentration of the normal group.

[2] = target: T1, acyl-CoA:cholesterol O-acyltransferase (ACAT) (Oryctolagus cuniculus, UniProt G1SFD9); assay: Inhibitory activity on acyl-CoA:cholesterol O-acyltransferase (ACAT), intestinal mucosa microsomal fraction, [1-14C]oleyl-CoA incorporation into cholesterol esters; type: biochemical, white rabbit; settings: read-out: Inhibition rate %
T1 construct: The intestinal mucosa of a white rabbit was homogenized and microsomal fraction was obtained by stepwise centrifugation; from tissue; host or cells: intestinal mucosa of white rabbit, microsomal fraction
T1 sequence (G1SFD9 1-524): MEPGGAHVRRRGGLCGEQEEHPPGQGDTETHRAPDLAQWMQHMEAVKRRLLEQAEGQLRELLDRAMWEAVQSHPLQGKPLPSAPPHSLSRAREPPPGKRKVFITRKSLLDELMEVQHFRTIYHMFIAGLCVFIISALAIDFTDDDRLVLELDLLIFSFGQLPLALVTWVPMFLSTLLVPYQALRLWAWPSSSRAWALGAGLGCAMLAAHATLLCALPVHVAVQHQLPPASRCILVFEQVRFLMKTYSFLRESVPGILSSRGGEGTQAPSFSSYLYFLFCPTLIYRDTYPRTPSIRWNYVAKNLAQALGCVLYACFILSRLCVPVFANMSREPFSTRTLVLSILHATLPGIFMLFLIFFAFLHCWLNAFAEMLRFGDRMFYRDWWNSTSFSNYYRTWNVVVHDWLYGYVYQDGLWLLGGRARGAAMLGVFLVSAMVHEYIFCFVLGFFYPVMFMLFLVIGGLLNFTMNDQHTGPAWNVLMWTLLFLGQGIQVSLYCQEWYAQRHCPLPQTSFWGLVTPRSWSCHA
Procedure: Inhibitory activity on acyl-CoA:cholesterol Oacyltransferase (ACAT)
The enzyme used in the test was prepared according to the method of Heider et al. [J. Lipid, Res. 24, 1127 (1983)]. The intestinal mucosa of a white rabbit was homogenized and microsomal fraction was obtained by stepwise centrifugation. The microsomal fraction was suspended in 0,154M phosphate buffer (pH 0 7.4) and stored at -80° C. until use.
ACAT activity was determined by a modification of the method of Helgerud et al. [J. Lipid Res. 22, 271 (1981)] by measuring radioactivity incorporated into cholesterol esters from [1-14C]oleyl-CoA, as an indication. As to the ACAT-inhibiting activity of each compound to be tested, the inhibition rate was calculated by the following equation.

Structure (SMILES) | inhibition at 0.1 µM [1] [%] | inhibition at 1 µM [1] [%] | Reduction rate (%) of the total serum cholesterol concentration (serum cholesterol) [%] | inhibition at 0.01 µM [2] [%] | inhibition at 1 µM [2] [%]
CCc1cccc(CC)c1NC(=O)Nc1oc2ccc(Cl)cc2c1-c1ccccc1Cl [Compound 12, N-[5-Chloro-3-(2-chlorophenyl)benzofuran-2-yl]-N'-(2,6-diethylphenyl)urea] | 93 | 99.5 | 55.0 | 82.9 | 99.4
CCc1cccc(CC)c1NC(=O)Nc1oc2cc(C)c(C)cc2c1-c1ccccc1Cl [Compound 37, N-[3-(2-Chlorophenyl)-5,6-dimethylbenzofuran-2-yl]-N'-(2,6-diethylphenyl)urea] | – | – | 59.3 | 74.7 | 99.5
CCc1cccc(CC)c1NC(=O)Nc1sc2cc(C)c(C)cc2c1-c1ccccc1Cl [Compound 80, N-[3-(2-Chlorophenyl)-5,6-dimethyl-1-benzothiophen-2-yl]-N'-(2,6-diethylphenyl)urea] | 85.3 | 96.9 | 85.9 | 69.9 | –
CCc1cccc(CC)c1NC(=O)Nc1sc2cc3c(cc2c1-c1ccccc1C)CCC3 [Compound 109, N-(2,6-Diethylphenyl)-N'-[3-(2-methylphenyl)-6,7-dihydro-5H-cyclopenta[f][1]benzothiophen-2-yl]urea] | – | – | 71.5 | 80.1 | –
